# Measurements reported in PubChem BioAssay (NCI).
#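 96-well plates; 48 h exposure; 5 concentrations. Endpoints by linear interpolation between flanking doses. Not reached: highest tested concentration assigned. Here, GI50 denotes the concentration required for 50% inhibition of growth. TGI denotes the concentration required for complete inhibition of growth.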
# Test system: MDA-MB-468 breast
# Experiment: NCI-60 cell line screen, 48 h
Compound,GI50,TGI
H-HIIKKIRTWYRKAWHVLGKV-NH2,6.38 µM,39 µM
CCN(CC)CCCCNc1ncc2cc(-c3cc(OC)cc(OC)c3)c(NC(=O)NC(C)(C)C)nc2n1,8.81 µM,21.7 µM
O=C(Cc1ccccc1)NC(c1ccc(Cl)cc1)c1c(O)ccc2ccccc12 (centres undefined),1.99 µM,5.53 µM
COc1cc(C2CC(c3ccccc3)=NN2C(C)=O)cc(OC)c1OC (centres undefined),3.34 µM,37.1 µM
CCn1c(-c2nonc2N)nc2cncc(C(=O)NCCNC)c21,1.9 µM,14.6 µM
COc1cc(NC(=O)CSc2nc3ccccc3c(=O)n2CCc2ccccc2)cc(OC)c1OC,2.2 µM,7.13 µM
O=C(Nc1ccc(OCc2nnc(-c3ccccc3)o2)c(F)c1)Nc1ccc(Cl)c(C(F)(F)F)c1,1.9 µM,6.93 µM
C/C(=C\CCc1ccsc1)CC/C=C(\C)CCCN1CCC(CO)CC1,1.48 µM,3.29 µM
C/C(=C(\c1ccc(O)cc1)c1ccc(OCCN2CCCCCC2)cc1)c1ccc(Cl)cc1,1.13 µM,4.51 µM
CC1OC(n2c3ccccc3c3c4c(c5c6ccccc6[nH]c5c32)C(=O)N(CCN2CCOCC2)C4=O)CC(O)C1O (centres undefined),1.57 µM,4.57 µM
COc1nc(N)nc2c1ncn2[C@@H]1O[C@H](CO)[C@@H](O)[C@@H]1O,> 100 µM,> 100 µM
CC1(C)N=C(N)N=C(N)N1c1cccc(CCCCOc2ccccc2)c1,0.0775 µM,4.08 µM
N#C/C(=C1C=C/C(=N\O)C(Cl)=C\1)c1ccccc1,0.92 µM,17.5 µM
COc1cccc(Cn2c(-c3nonc3NC(C)=O)nc3ccccc32)c1,1.45 µM,6.36 µM
Clc1ccc(C2=NN[C@H](c3cn(-c4ccccc4)nc3-c3ccccc3)C2)cc1,4.22 µM,18.2 µM
O=C1CCC(N2Cc3c(C#CCCCNC(=O)c4cc5c(o4)C(=O)c4ccccc4C5=O)cccc3C2=O)C(=O)N1 (centres undefined),2.13 µM,6.25 µM
O=C1CC[C@H](c2ccc(O)c3c2C(=O)[C@@H]2O[C@@H]2C3=O)c2cccc(O)c21,1.61 µM,4.27 µM
CS(=O)(=O)c1ccc(Oc2cc(F)cc(C#N)c2)c2c1[C@H](O)C(F)(F)C2,> 100 µM,> 100 µM
O=S(=O)(CCNCc1ccc(-c2ccc3ncnc(Nc4ccc(OCc5cccc(F)c5)c(Cl)c4)c3c2)o1)c1ccccc1,0.217 µM,7.79 µM
Cn1ccnc1C(=O)/C=C/c1ccc(CC(=O)Nc2ccc(F)cc2)cc1,1.72 µM,5.8 µM
COc1ccc(OC)c(/C=C2\COc3ccc(O)c(O)c3C2=O)c1,1.66 µM,5.25 µM

Compound,GI50,TGI
Cc1nn(-c2ccccc2)c2nc3c(nc12)C1=NCCN1C(c1ccc(Cl)cc1)N3 (centres undefined),1.65 µM,3.23 µM
C#C[C@]1(O)CC[C@H]2[C@@H]3CC=C4c5sc(Nc6cccc(F)c6)nc5CC[C@]4(C)[C@H]3CC[C@@]21C,1.24 µM,2.91 µM
Cc1cc(C)c2nc3nc(C)cc(C)c3c(N)c2c1,3.61 µM,14.9 µM
CCN(CC)CCCC(Cc1ccccc1)Nc1c2ccc(Cl)cc2nc2ccc(OC)cc12 (centres undefined),1.7 µM,3.67 µM
C=CC[C@@H]1/C=C(\C)C[C@H](C)C[C@H](OC)[C@H]2O[C@@](O)(C(=O)C(=O)N3CCCC[C@H]3C(=O)O[C@H](/C(C)=C/C3CC[C@@H](O)[C@H](OC)C3)[C@H](C)[C@@H](O)CC1=O)[C@H](C)C[C@@H]2OC (some centres undefined),12.2 µM,27.3 µM
C=C(C)[C@@H]1CC[C@]2(C(=O)O)CC[C@]3(C)[C@H](CC[C@@H]4[C@@]5(C)C/C(=C/c6ccc(OC)cc6)C(=O)C(C)(C)[C@@H]5CC[C@]43C)[C@@H]12,1.81 µM,7 µM
COc1ccc2cc(Cn3cc[n+](Cc4ccc5ccccc5c4)c3)ccc2c1,0.487 µM,2.57 µM
O=C(CN1C(=O)S/C(=C\C(Cl)=C\c2ccccc2)C1=O)NCCc1ccc(O)cc1,1.27 µM,3.54 µM
COc1ccc(-c2nn(-c3cccc(NC(=O)c4cccc(C(F)(F)F)c4)c3)cc2-c2ccncc2)cc1Cl,1.68 µM,9.61 µM
COc1ccc(CCN2CCC(Nc3nc4ccccc4n3Cc3ccc(F)cc3)CC2)cc1,1.15 µM,2.44 µM
O=C(NCCNc1nccc(-c2c(-c3cccc(O)c3)nc3sccn23)n1)Nc1cccc(C(F)(F)F)c1,1.67 µM,3.33 µM
COC1=C2C[C@@H](C)C[C@@H](OC)[C@@H](O)[C@H](C)/C=C(\C)[C@@H](OC(N)=O)[C@H](OC)/C=C\C=C(/C)C(=O)NC(=CC1=O)C2=O,0.0153 µM,0.577 µM
COc1ccc(-c2nc(N3CCOCC3)c3sc(CN(C)c4ncc(C(=O)NO)cn4)cc3n2)cn1,< 0.0104 µM,0.0968 µM
CCOC(=O)c1c(Cl)c2c(n1Cc1cccc(OC)c1)-c1oncc1CC2,0.652 µM,5.87 µM
Cc1[nH]nc2ccc3nc(-c4ccc5[nH]ncc5c4)c4c(c3c12)CCCC4,1.02 µM,4.38 µM
Cc1cc2cc3cc(C)c(N)cc3[n+](C)c2cc1N,0.243 µM,1.3 µM
N=c1n(Cc2ccccc2)c(N)cc(=O)n1Cc1ccccc1,4.82 µM,21.2 µM
O=C(NCCNc1nccc(-c2c(-c3ccc(F)cc3)nc3sccn23)n1)c1ccccc1,4.48 µM,44.5 µM
O=C1/C(=C/c2ccccc2F)CN(C(=O)C(Cl)Cl)C/C1=C\c1ccccc1F,0.277 µM,1.11 µM
CC(C)n1c(=O)n(C)c2cnc3cc(F)c(-c4ccc(OCCCN5CCCCC5)nc4)cc3c21,4.98 µM,26 µM
S=C(c1ccc2c(c1)OCO2)N1CCN(c2cccc(Cl)c2)CC1,0.34 µM,> 36.8 µM
